Experimental data published in ChEMBL document CHEMBL1201862, “PubChem BioAssay data set” (2004).
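Protocol summary: plate cells (96-well), add compound at 5 concentrations, incubate 48 h, interpolate endpoints linearly. At the GI50, growth is halved.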 Calls of active or inactive are those of the source. Cut-off read from the data, not from the text of the source: active = GI50 up to about 1.1 µM and inactive = higher.

How the values were obtained:
Experiment in all cases: NCI-60 cell line screen, 48 h
[1] = system: RPMI-8226
[2] = system: NCI-H226
[3] = system: U-251
[4] = system: UO-31
[5] = system: UACC-62
[6] = system: SF-539
[7] = system: K562
[8] = system: SK-MEL-5
[9] = system: SW-620
[10] = system: NCI-H23
[11] = system: SNB-78
[12] = system: OVCAR-4
[13] = system: SF-295
[14] = system: EKVX
[15] = system: SK-OV-3
[16] = system: HCT-116
[17] = system: MOLT-4
[18] = system: A549
[19] = system: UACC-257
[20] = system: DLD-1
[21] = system: OVCAR-8
[22] = system: A498
[23] = system: HL-60
[24] = system: LOX IMVI
[25] = system: M19-MEL
[26] = system: SK-MEL-2
[27] = system: SN12C
[28] = system: HCC 2998
[29] = system: HCT-15
[30] = system: KM-20L2
[31] = system: COLO 205
[32] = system: HT-29
[33] = system: CCRF-CEM
[34] = system: TK-10
[35] = system: IGROV-1
[36] = system: XF498
[37] = system: OVCAR-5
[38] = system: SNB-75
[39] = system: M14
[40] = system: CAKI-1
[41] = system: LXFL 529
[42] = system: HOP-92
[43] = system: SR
[44] = system: KM12
[45] = system: RXF 393
[46] = system: NCI-H522
[47] = system: SNB-19
[48] = system: DMS-273
[49] = system: SF-268
[50] = system: HOP-62
[51] = system: ACHN
[52] = system: SK-MEL-28
[53] = system: NCI-H460
[54] = system: Malme-3M
[55] = system: 786-0
[56] = system: OVCAR-3
[57] = system: HOP-18
[58] = system: DMS-114

With `CC(=O)NNc1nc(C)c(C(=O)NNC(=O)C(=O)Nc2c(C)cccc2C(C)(C)C)s1` the GI50 [1] was 45.9 µM (inactive), the GI50 [2] was > 100 µM (inactive) and the GI50 [3] was 58.7 µM (inactive). For the same molecule, the GI50 [4] was 47.8 µM (inactive), the GI50 [5] was 97.9 µM (inactive) and the GI50 [6] was > 100 µM (inactive). For the same molecule, the GI50 [7] was 31.3 µM (inactive), the GI50 [8] was > 100 µM (inactive) and the GI50 [9] was > 100 µM (inactive). For the same molecule, the GI50 [10] was > 100 µM (inactive), the GI50 [11] was > 100 µM (inactive) and the GI50 [12] was 40.3 µM (inactive). For the same molecule, the GI50 [13] was > 100 µM (inactive), the GI50 [14] was > 100 µM (inactive) and the GI50 [15] was > 100 µM (inactive). For the same molecule, the GI50 [16] was 75.2 µM (inactive), the GI50 [17] was 41.1 µM (inactive) and the GI50 [18] was 46.9 µM (inactive). The GI50 [19] was > 100 µM (inactive), the GI50 [20] was 61.8 µM (inactive) and the GI50 [21] was > 100 µM (inactive). The GI50 [22] was > 100 µM (inactive), the GI50 [23] was 33.3 µM (inactive) and the GI50 [24] was 57.8 µM (inactive). For the same molecule, the GI50 [25] was 48 µM (inactive), the GI50 [26] was > 100 µM (inactive) and the GI50 [27] was 44.2 µM (inactive). The GI50 [28] was 25.6 µM (inactive), the GI50 [29] was 59.7 µM and the GI50 [30] was 83.4 µM (inactive). For the same molecule, the GI50 [31] was 46.8 µM (inactive), the GI50 [32] was 64 µM (inactive) and the GI50 [33] was 16.2 µM (inactive). The GI50 [34] was > 100 µM (inactive), the GI50 [35] was 93.3 µM (inactive) and the GI50 [36] was > 100 µM (inactive). For the same molecule, the GI50 [37] was > 100 µM (inactive), the GI50 [38] was > 100 µM (inactive) and the GI50 [39] was > 100 µM (inactive). The GI50 [40] was 49.5 µM (inactive), the GI50 [41] was 69.8 µM (inactive) and the GI50 [42] was > 100 µM (inactive). The GI50 [43] was 48.2 µM (inactive), the GI50 [44] was > 100 µM (inactive) and the GI50 [45] was > 100 µM (inactive). For the same molecule, the GI50 [46] was 20.9 µM (inactive), the GI50 [47] was > 100 µM (inactive) and the GI50 [48] was 47.1 µM (inactive). The GI50 [49] was > 100 µM (inactive), the GI50 [50] was > 100 µM (inactive) and the GI50 [51] was 59.4 µM (inactive). The GI50 [52] was > 100 µM (inactive) and the GI50 [53] was 52.2 µM (inactive).

In the case of `O=C(Nc1cc(Cl)ccc1Cl)c1cc2ccccc2oc1=O`, the GI50 [1] is reported as > 100 µM (inactive), the GI50 [3] is reported as 59.3 µM (inactive) and the GI50 [5] is reported as > 100 µM (inactive). For the same molecule, the GI50 [6] was > 100 µM (inactive), the GI50 [54] was 18 µM (inactive) and the GI50 [7] was > 100 µM (inactive). The GI50 [8] was > 100 µM (inactive), the GI50 [9] was > 100 µM (inactive) and the GI50 [10] was > 100 µM (inactive). For the same molecule, the GI50 [13] was 43.3 µM (inactive), the GI50 [14] was > 100 µM (inactive) and the GI50 [15] was 38.9 µM (inactive). The GI50 [16] was > 100 µM (inactive), the GI50 [55] was 51.8 µM (inactive) and the GI50 [17] was 94.8 µM (inactive). For the same molecule, the GI50 [18] was > 100 µM (inactive), the GI50 [19] was 97.3 µM (inactive) and the GI50 [20] was > 100 µM (inactive). The GI50 [21] was 88.3 µM (inactive), the GI50 [23] was > 100 µM (inactive) and the GI50 [24] was 61 µM (inactive). The GI50 [25] was > 100 µM (inactive), the GI50 [26] was > 100 µM (inactive) and the GI50 [27] was 75.9 µM (inactive). The GI50 [56] was 77.6 µM (inactive), the GI50 [29] was over 100 µM and the GI50 [57] was 20.9 µM (inactive). The GI50 [30] was > 100 µM (inactive), the GI50 [31] was > 100 µM (inactive) and the GI50 [32] was > 100 µM (inactive). For the same molecule, the GI50 [33] was 46.8 µM (inactive), the GI50 [34] was > 100 µM (inactive) and the GI50 [35] was > 100 µM (inactive). For the same molecule, the GI50 [38] was 15.7 µM (inactive), the GI50 [39] was > 100 µM (inactive) and the GI50 [58] was 78 µM (inactive). For the same molecule, the GI50 [44] was > 100 µM (inactive), the GI50 [45] was 37.2 µM (inactive) and the GI50 [46] was > 100 µM (inactive). The GI50 [48] was 98.2 µM (inactive), the GI50 [50] was 45.6 µM (inactive) and the GI50 [51] was 39.3 µM (inactive). The GI50 [52] was > 100 µM (inactive) and the GI50 [53] was 53.2 µM (inactive).

With `c1ccc(SCCCC(Sc2ccccc2)Sc2ccccc2)cc1` the GI50 [1] was > 100 µM (inactive), the GI50 [3] was > 100 µM (inactive) and the GI50 [4] was > 100 µM (inactive). The GI50 [5] was > 100 µM (inactive), the GI50 [6] was > 100 µM (inactive) and the GI50 [7] was > 100 µM (inactive). For the same molecule, the GI50 [8] was > 100 µM (inactive), the GI50 [9] was > 100 µM (inactive) and the GI50 [10] was > 100 µM (inactive). For the same molecule, the GI50 [11] was > 100 µM (inactive), the GI50 [12] was > 100 µM (inactive) and the GI50 [13] was > 100 µM (inactive). For the same molecule, the GI50 [14] was > 100 µM (inactive), the GI50 [15] was > 100 µM (inactive) and the GI50 [16] was > 100 µM (inactive). For the same molecule, the GI50 [55] was > 100 µM (inactive), the GI50 [17] was > 100 µM (inactive) and the GI50 [18] was > 100 µM (inactive). The GI50 [19] was > 100 µM (inactive), the GI50 [20] was > 100 µM (inactive) and the GI50 [21] was > 100 µM (inactive). For the same molecule, the GI50 [22] was > 100 µM (inactive), the GI50 [23] was > 100 µM (inactive) and the GI50 [24] was > 100 µM (inactive). For the same molecule, the GI50 [25] was > 100 µM (inactive), the GI50 [26] was > 100 µM (inactive) and the GI50 [27] was > 100 µM (inactive). The GI50 [56] was > 100 µM (inactive), the GI50 [28] was > 100 µM (inactive) and the GI50 [29] was over 100 µM. For the same molecule, the GI50 [30] was > 100 µM (inactive), the GI50 [31] was > 100 µM (inactive) and the GI50 [33] was > 100 µM (inactive). The GI50 [34] was > 100 µM (inactive), the GI50 [35] was > 100 µM (inactive) and the GI50 [36] was > 100 µM (inactive). For the same molecule, the GI50 [38] was > 100 µM (inactive), the GI50 [39] was > 100 µM (inactive) and the GI50 [40] was > 100 µM (inactive). For the same molecule, the GI50 [41] was > 100 µM (inactive), the GI50 [58] was > 100 µM (inactive) and the GI50 [42] was 49.9 µM (inactive). The GI50 [43] was > 100 µM (inactive), the GI50 [44] was > 100 µM (inactive) and the GI50 [45] was > 100 µM (inactive). The GI50 [47] was > 100 µM (inactive), the GI50 [48] was > 100 µM (inactive) and the GI50 [49] was > 100 µM (inactive). The GI50 [50] was > 100 µM (inactive), the GI50 [51] was > 100 µM (inactive) and the GI50 [52] was > 100 µM (inactive). The GI50 [53] was > 100 µM (inactive).
